The record followed here is patent US10596103B2, “Drug delivery system for delivery of anti-virals” (Merck Sharp & Dohme B.V., priority 2013, dated 2020).

The data set in a line: Solubility of vicriviroc in EVA by partitioning experiments. In kind it is physicochemical. On the procedure: The solubility of vicriviroc in EVA was determined by partitioning experiments. A small sample of polymer film (approximately 10 mg) was immersed in a saturated aqueous vicriviroc solution (5 mL PBS buffer pH 7). Once the film was immersed the drug diffused from the saturated solution into the film until an equilibrium was achieved. As a result the drug concentration of the aqueous solution decreased and the drug concentration in the film increased. The decrease of the drug concentration in the aqueous solution was continuously measured with a fiber optic probe (Rainbow Dynamic Dissolution Monitor).

On to `COC[C@@H](c1ccc(C(F)(F)F)cc1)N1CCN(C2(C)CCN(C(=O)c3c(C)ncnc3C)CC2)C[C@@H]1C` [vicriviroc], for which the “Vicriviroc loading above which supersaturation occurs” value (in EVA 28) is recorded as “above 1.4 % by weight”. Moreover, under “polymer film in saturated aqueous vicriviroc solution, PBS buffer pH 7, FIG. 14”, the “Solubility of vicriviroc in EVA 28” value is on record as 1.2-1.4 wt %.
